Measured values published in patent US9856221B2, “Salt of ivabradine and process for the preparation thereof” (LES LABORATOIRES SERVIER, priority 2014, dated 2018).
Values joined by “and” are separate entries in the source; they are usually repeats but may differ in a detail not shown here. Identical values can stand only once. Counter-ions that a name gives are not always drawn.

Legend:
[1] = In vitro release of ivabradine hydrochloride (immediate-release formulation); type: physicochemical
[2] = Dissolution test (paddle apparatus, Ph. Eur. 2.9.3), release of active ingredient; type: physicochemical; conditions: for % of active ingredient released (individual units B1-B6) / % of active ingredient released, Mean: 0.01 N HCl pH~2.1, 37°C, paddle 50 rpm; for % of active ingredient released (individual units B1-B6): 500 mL; for % of active ingredient released, Mean: mean of 6 units
Protocol: Dissolution Test Operating Conditions for Dissolution Paddle dissolution apparatus described in the European pharmacopoeia (2.9.3) Dissolution medium: 0.01 N hydrochloric acid (pH˜2.1) degassed Temperature of the medium: 37° C.±0.5° C. Volume of the medium: 500 mL±5 mL Speed of rotation of the blades: 50 rpm±2 rpm Standard sampling time: 0, 15, 30 and 45 min Added sampling times: 1, 2, 4, 6, 8, 12 and 16 h Volume removed: 1 mL Replacement of the volume removed: no Number of units tested: 6 Number of units per flask: 1

## COc1cc2c(cc1OC)CC(=O)N(CCCN(C)C[C@H]1Cc3cc(OC)c(OC)cc31)CC2 [ivabradine hydrochloride, 3-{3-[{[(7S)-3,4-dimethoxybicyclo[4.2.0]octa-1,3,5-trien-7-yl]methyl}-(methyl)amino]propyl}-7,8-dimethoxy-1,3,4,5-tetrahydro-2H-3-benzazepin-2-one]
[1]
  time in which all the salt is released in vitro: 15 min

## COc1cc2c(cc1OC)CC(=O)N(CCCN(C)C[C@H]1Cc3cc(OC)c(OC)cc31)CC2 [ivabradine hemipamoate]
[2]; after approximately 6 hours, in vitro dissolution test
  ivabradine hemipamoate released: 80%
[2]; time 0 hour
  Derivative (of % of active ingredient released over time): 0 %/min
  % of active ingredient released (individual units B1-B6): 0%
  % of active ingredient released, Mean: 0%
[2]; time 0.25 hour
  Derivative (of % of active ingredient released over time): 0.79 %/min
  % of active ingredient released (individual units B1-B6): 12% (3×) and 11% (2×) and 13%
  % of active ingredient released, Mean: 12%
[2]; time 0.5 hour
  Derivative (of % of active ingredient released over time): 0.4 %/min
  % of active ingredient released (individual units B1-B6): 18% (2×) and 17% (2×) and 20% and 16%
  % of active ingredient released, Mean: 18%
[2]; time 0.75 hour
  Derivative (of % of active ingredient released over time): 0.26 %/min
  % of active ingredient released (individual units B1-B6): 21% (2×) and 22% (2×) and 24% and 20%
  % of active ingredient released, Mean: 22%
[2]; time 1 hour
  Derivative (of % of active ingredient released over time): 0.2 %/min
  % of active ingredient released (individual units B1-B6): 24% and 25% and 26% and 28% and 23% (2×)
  % of active ingredient released, Mean: 25%
[2]; time 2 hour
  Derivative (of % of active ingredient released over time): 0.23 %/min
  % of active ingredient released (individual units B1-B6): 38% (2×) and 40% (2×) and 43% and 34%
  % of active ingredient released, Mean: 39%
[2]; time 4 hour
  Derivative (of % of active ingredient released over time): 0.25 %/min
  % of active ingredient released (individual units B1-B6): 64% and 70% (2×) and 71% and 72% and 66%
  % of active ingredient released, Mean: 69%
[2]; time 6 hour
  Derivative (of % of active ingredient released over time): 0.15 %/min
  % of active ingredient released (individual units B1-B6): 81% and 89% and 88% and 85% and 91% and 84%
  % of active ingredient released, Mean: 86%
[2]; time 8 hour
  Derivative (of % of active ingredient released over time): 0.07 %/min
  % of active ingredient released (individual units B1-B6): 89% and 99% and 96% and 94% and 101% and 93%
  % of active ingredient released, Mean: 95%
[2]; time 12 hour
  Derivative (of % of active ingredient released over time): 0.03 %/min
  % of active ingredient released (individual units B1-B6): 96% and 109% and 102% and 103% and 110% and 101%
  % of active ingredient released, Mean: 104%
[2]; time 16 hour
  Derivative (of % of active ingredient released over time): 0.01 %/min
  % of active ingredient released (individual units B1-B6): 98% and 114% (2×) and 104% and 106% and 105%
  % of active ingredient released, Mean: 107%
